Source: US20040224981A1, “Antibacterial methods and compositions” (priority 2003, published 2004)
Like-named read-outs stand apart in the source and are kept apart here.

Columns and labels:
[1] = tested on: E. faecium; assay: MIC against E. faecium; assay type: cell-based
Procedure: MRSi compound 5 alone and in combination with mupirocin was tested recent clinical isolates of E. faecalis (n=28) and E. faecium (n=23). Both the acetate salt and mupirocinate salts of MRSi compound 5 maintained potent activity against vancomycin-susceptible and—resistant enterococci (Tables 8, 9, and 10).

[2] = tested on: S. aureus; assay: MIC against S. aureus strains and clinical isolates (broth microdilution); assay type: cell-based, Staphylococcus aureus; settings: for MIC / MIC50 / MIC90: Staphylococcus aureus; for MIC50: read-out: MIC50; for MIC90: read-out: MIC90
How it was run: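 Broth microdilution per NCCLS in cation-supplemented Mueller-Hinton broth, final inoculum 5×10^5 CFU/ml from 0.5 McFarland suspensions diluted 1:10. Trays incubated aerobically overnight with quality control strains each run. Checkerboard FIC index: ≦0.5 synergy, >0.5 to 4 additive/indifferent, >4.0 antagonism.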

[3] = tested on: E. faecalis; assay: MIC against E. faecalis; assay type: cell-based; settings: for Range (MIC): in µg/mL; for MIC: Enterococcus faecalis, read-out: MIC
[4] = tested on: S. hemolyticus; assay: MIC against S. hemolyticus; assay type: cell-based; settings: Table 4, read-out: MIC
[5] = tested on: S. pyogenes; assay: MIC against S. pyogenes; assay type: cell-based, Streptococcus pyogenes; settings: for MIC: Streptococcus pyogenes, Table 4, read-out: MIC
Procedure: The MRS inhibitor 4 alone and in combination with mupirocin (mupirocin salt and 1:1 combination) were tested against a collection of Gram-positive pathogens.
S. pyogenes is also a significant skin pathogen and 48 recent clinical isolates were tested for their susceptibility to MRSi compound 5 alone (acetate) and in combination (1:1) with mupirocin (mupirocinate).

[6] = tested on: MRS-resistant mutants of S. aureus; assay: Susceptibility (MIC) of MRS-resistant mutants of S. aureus; assay type: cell-based; settings: Staphylococcus aureus
Procedure: MRS-resistant mutants generated in vitro in either serial passage or spontaneous resistance development studies were evaluated for susceptibility to mupirocin alone and in a 1:1 combination with MRSi compound 5.

[7] = recent clinical isolates of E. faecium, ALL (23)
[8] = all S. aureus isolates of Table 6
[9] = oxacillin-resistant S. aureus, Oxa-R (42)
[10] = oxacillin-susceptible S. aureus, Oxa-S (20)
[11] = recent clinical isolates of S. aureus, All (62)
[12] = recent clinical isolates of E. faecalis, ALL (28)
[13] = 48 recent clinical isolates of S. pyogenes

C=C(F)c1sc(CNCCCNc2cc(=O)c3ccccc3[nH]2)c(C)c1Br [MRSi Cmpd 5 acetate, N-(4-bromo-5-(1-fluorovinyl)-3-methylthiophen-2-ylmethyl)-N′-(1H-quinolin-4-one)propane-1,3-diamine]
MIC50 ([1]; E. faecium, Van-R(12)): < 0.004 µg/mL | MIC90 ([1]; E. faecium, Van-R(12)): < 0.004 µg/mL | Mode (MIC) ([1]; E. faecium, Van-R(12)): < 0.004 µg/mL | Range (MIC) ([1]; E. faecium, Van-R(12), in µg/mL): <0.004-0.03 | MIC50 ([1]; E. faecium, Van-S (11)): ≦0.004 | MIC90 ([1]; E. faecium, Van-S (11)): ≦0.004 | Mode (MIC) ([1]; E. faecium, Van-S (11)): ≦0.004 | Range (MIC) ([1]; E. faecium, Van-S (11)): ≦0.004 | MIC50 [1, 7]: < 0.004 µg/mL | MIC90 [1, 7]: < 0.004 µg/mL | Mode (MIC) [1, 7]: < 0.004 µg/mL | Range (MIC) ([1]; recent clinical isolates of E. faecium, ALL (23), in µg/mL): <0.004-0.03 | MIC ([2]; ATCC29213, Table 4, S. aureus ATCC 29213, read-out: MIC): 0.06 µg/mL | MIC ([2]; ATCC43300, Table 4, S. aureus ATCC 43300 (ORSA), read-out: MIC): 0.25 µg/mL | MIC ([2]; NRS 1 / VISA, VISA, S. aureus NRS1 (Mu50), read-out: MIC): 0.015 µg/mL | MIC ([2]; NRS 3 / VISA, VISA, S. aureus NRS3 (HIP5827), read-out: MIC): 0.008 µg/mL | MIC ([2]; NRS 4 / VISA, VISA, S. aureus NRS4 (HIP5836), read-out: MIC): 0.008 µg/mL | MIC ([2]; NRS 18 / VISA, VISA, S. aureus NRS18 (HIP06854), read-out: MIC): 0.03 µg/mL | MIC ([2]; NRS 24 / VISA, VISA, S. aureus NRS24 (HIP09143), read-out: MIC): 0.06 µg/mL | MIC ([2]; NRS 49 / VISA, VISA, S. aureus NRS49 (Korea), read-out: MIC): 0.008 µg/mL | MIC ([2]; NRS54, Table 6, high-level mupirocin-resistant S. aureus NRS54, read-out: MIC): 0.06 µg/mL | MIC ([2]; NRS 54 / VISA, VISA, S. aureus NRS54 (Brazil), read-out: MIC): 0.06 µg/mL | MIC ([2]; NRS 56 / VISA, VISA, S. aureus NRS56 (Brazil), read-out: MIC): 0.008 µg/mL | MIC ([2]; NRS107, Table 4, S. aureus NRS107 (mupA), read-out: MIC): ≤ 0.008 µg/mL | MIC ([2]; NRS107, Table 6, high-level mupirocin-resistant S. aureus NRS107, read-out: MIC): ≤ 0.008 µg/mL | MIC ([2]; NRS127, Table 6, low-level mupirocin-resistant S. aureus NRS127, read-out: MIC): 0.5 µg/mL | MIC ([2]; Table 6, S. aureus (mupirocin-susceptible) 010-100, read-out: MIC): 0.03 µg/mL | MIC ([2]; Table 6, S. aureus (mupirocin-susceptible) 087-2789, read-out: MIC): 0.06 µg/mL | MIC ([2]; Table 6, S. aureus (mupirocin-susceptible) LZ9, read-out: MIC): 0.03 µg/mL | MIC ([2]; Table 6, S. aureus (mupirocin-susceptible) LZ10, read-out: MIC): 0.03 µg/mL | MIC ([2]; Table 6, high-level mupirocin-resistant S. aureus 010-420, read-out: MIC): 0.03 µg/mL | MIC ([2]; Table 6, high-level mupirocin-resistant S. aureus 25-670, read-out: MIC): 0.03 µg/mL | MIC ([2]; Table 6, high-level mupirocin-resistant S. aureus 87-2797, read-out: MIC): 0.03 µg/mL | MIC ([2]; Table 6, high-level mupirocin-resistant S. aureus 1079101, read-out: MIC): 0.06 µg/mL | MIC ([2]; Table 6, high-level mupirocin-resistant S. aureus LZ1, read-out: MIC): 0.015 µg/mL | MIC ([2]; Table 6, high-level mupirocin-resistant S. aureus LZ6, read-out: MIC): 0.06 µg/mL | MIC ([2]; Table 6, low-level mupirocin-resistant S. aureus 014-354, read-out: MIC): 0.015 µg/mL | MIC ([2]; Table 6, low-level mupirocin-resistant S. aureus 031-1334, read-out: MIC): 0.015 µg/mL | MIC ([2]; Table 6, low-level mupirocin-resistant S. aureus 036-1298, read-out: MIC): ≤ 0.008 µg/mL | MIC ([2]; Table 6, low-level mupirocin-resistant S. aureus 1081148, read-out: MIC): 0.5 µg/mL | MIC ([2]; Table 6, low-level mupirocin-resistant S. aureus LZ8, read-out: MIC): 0.03 µg/mL | MIC ([2]; Table 6, low-level mupirocin-resistant S. aureus Miles Hall, read-out: MIC): ≤ 0.008 µg/mL | MIC ([2]; VISA, all 8 vancomycin-intermediate S. aureus (VISA) isolates, read-out: MICs ranging): 0.008 to 0.25 µg/mL | MIC50 [2, 8]: 0.03 µg/mL | MIC90 [2, 8]: 0.5 µg/mL | MIC50 [2, 9]: 0.03 µg/mL | MIC90 [2, 9]: 0.5 µg/mL | MIC ([2]; oxacillin-resistant S. aureus, Oxa-R (42), read-out: MIC Mode): 0.03 µg/mL | MIC50 [2, 10]: 0.03 µg/mL | MIC90 [2, 10]: 0.06 µg/mL | MIC ([2]; oxacillin-susceptible S. aureus, Oxa-S (20), read-out: MIC Mode): 0.06 µg/mL | MIC50 [2, 11]: 0.03 µg/mL | MIC90 [2, 11]: 0.12 µg/mL | MIC ([2]; recent clinical isolates of S. aureus, All (62), read-out: MIC Mode): 0.06 µg/mL | MIC Range [2, 8]: ≦0.008-0.5 μg/mL | MIC Range [2, 9]: ≦0.008 to 1 μg/mL | MIC Range [2, 10]: ≦0.008 to 0.12 μg/mL | MIC Range [2, 11]: ≦0.008 to 1 μg/mL | MIC50 ([3]; E. faecalis, Van-R(11)): < 0.004 µg/mL | MIC90 ([3]; E. faecalis, Van-R(11)): 0.015 µg/mL | Mode (MIC) ([3]; E. faecalis, Van-R(11)): < 0.004 µg/mL | Range (MIC) ([3]; E. faecalis, Van-R(11)): <0.004-0.015 | MIC50 ([3]; E. faecalis, Van-S (16)): ≦0.004 | MIC90 ([3]; E. faecalis, Van-S (16)): 0.008 µg/mL | Mode (MIC) ([3]; E. faecalis, Van-S (16)): ≦0.004 | Range (MIC) ([3]; E. faecalis, Van-S (16)): <0.004-0.015 | MIC ([3]; ATCC29212, Table 4, E. faecalis ATCC 29212): 0.015 µg/mL | MIC ([3]; Table 4, E. faecalis 1): 0.004 µg/mL | MIC ([3]; Table 4, E. faecalis 7): 0.015 µg/mL | MIC50 [3, 12]: < 0.004 µg/mL | MIC90 [3, 12]: 0.015 µg/mL | Mode (MIC) [3, 12]: < 0.004 µg/mL | Range (MIC) [3, 12]: <0.004-0.015 | MIC ([4]; S. hemolyticus NRS50): 0.12 µg/mL | MIC ([4]; S. hemolyticus NRS116): 0.25 µg/mL | MIC50 [5, 13]: 0.06 µg/mL | MIC90 [5, 13]: 0.12 µg/mL | Mode (MIC) [5, 13]: 0.06 µg/mL | MIC Range ([5]; 48 recent clinical isolates of S. pyogenes, in µg/mL): 0.03 to 0.25 | MIC ([5]; ATCC19615, S. pyogenes ATCC 19615): 0.12 µg/mL | MIC ([5]; S. pyogenes MB000143): 0.12 µg/mL | MIC ([6]; ATCC29213, S. aureus ATCC 29213, metS wild-type): 0.06 µg/mL | MIC ([6]; ATCC43300, S. aureus ATCC 43300, metS wild-type): 0.06 µg/mL | MIC ([6]; S. aureus SP-1A2, metS A247E): 4 µg/mL | MIC ([6]; S. aureus SP-1B5, metS I57N): 8 µg/mL | MIC ([6]; S. aureus SP-2B5, metS I57N, R100S): 16 µg/mL | MIC ([6]; S. aureus SP-2C4, metS L213W): 4 µg/mL | MIC ([6]; S. aureus SP-2D4, metS I57N): 16 µg/mL | MIC ([6]; S. aureus SP-9B5, metS I57N, V296F): 4 µg/mL | MIC ([6]; S. aureus SP-21A, metS A77V): 4 µg/mL | MIC ([6]; S. aureus SR1, metS I57N): 4 µg/mL
